Test: xn = mol fraction of the nth substance listed

CCCCCCCCn1cc[n+](C)c1.[Cl-] + CCCO
101 kPa
Conditions	viscosity [mPa·s]
298.15 K, x2 = 0	21000
298.15 K, x2 = 0.7248	19.25
298.15 K, x2 = 0.9024	4.6
313.15 K, x2 = 0.407	160
328.15 K, x2 = 0	1091
328.15 K, x2 = 0.1071	560
328.15 K, x2 = 0.2407	231
328.15 K, x2 = 0.3036	144
328.15 K, x2 = 0.6209	17.73
328.15 K, x2 = 0.7248	8.25
328.15 K, x2 = 0.94	1.679
328.15 K, x2 = 0.9729	1.372

CCCCCC[n+]1ccn(C)c1.N#C[S-] + [Cl-].[Li+] + CN1CCCC1=O
298.15 K, 101 kPa
Conditions	viscosity [mPa·s]
x1 = 0.001304, x2 = 0.1036	5.036
x1 = 0.001343, x2 = 0.0415	2.652
x1 = 0.001443, x2 = 0.07122	3.694
x1 = 0.002891, x2 = 0.1035	5.064
x1 = 0.002967, x2 = 0.07111	3.723
x1 = 0.00301, x2 = 0.04143	2.691
x1 = 0.004262, x2 = 0.1033	5.092
x1 = 0.004468, x2 = 0.071	3.75
x1 = 0.004767, x2 = 0.04136	2.745
x1 = 0.00607, x2 = 0.1032	5.12
x1 = 0.006095, x2 = 0.07088	3.806
x1 = 0.00649, x2 = 0.04129	2.765
x1 = 0.007465, x2 = 0.07079	3.848
x1 = 0.007616, x2 = 0.04124	2.776
x1 = 0.007643, x2 = 0.103	5.148
x1 = 0.008578, x2 = 0.07071	3.887
x1 = 0.008753, x2 = 0.1029	5.176
x1 = 0.009233, x2 = 0.04117	2.794
x1 = 0.01021, x2 = 0.1027	5.204
x1 = 0.0105, x2 = 0.04112	2.823
x1 = 0.0108, x2 = 0.07055	3.923
x1 = 0.01107, x2 = 0.1026	5.231
x1 = 0.01163, x2 = 0.04107	2.837
x1 = 0.01204, x2 = 0.07046	3.961

CC[C@H](C)[C@H](N)C(=O)O + CC[n+]1ccn(C)c1.O=S(=O)([O-])O + O
viscosity [mPa·s], 100 kPa
Conditions	x1 = 0.0003801, x2 = 0	x1 = 0.0007797, x2 = 0	x1 = 0.00113, x2 = 0	x1 = 0.001526, x2 = 0	x1 = 0.001761, x2 = 0	x1 = 0.002228, x2 = 0	x1 = 0.002748, x2 = 0
293.15 K	1.024	1.046	1.066	1.088	1.101	1.127	1.156
298.15 K	0.902	0.913	0.923	0.934	0.94	0.953	0.968
303.15 K	0.807	0.817	0.826	0.836	0.843	0.855	0.868
308.15 K	0.729	0.739	0.748	0.757	0.763	0.775	0.787
313.15 K	0.661	0.671	0.679	0.688	0.693	0.704	0.716

CCCCCCCCCCCCCCCC[n+]1ccccc1.[Br-] + NCC(=O)NCC(=O)O + O
electrical conductivity [S/m], 100 kPa
Conditions	x1 = 8.993e-05, x2 = 0.001802	x1 = 8.996e-05, x2 = 0.001442	x1 = 8.999e-05, x2 = 0.001082	x1 = 9.003e-05, x2 = 0.0007216	x1 = 9.006e-05, x2 = 0.0003609	x1 = 9.009e-05, x2 = 0
298.15 K	0.023	0.022	0.021	0.02	0.019	0.021
303.15 K	0.024	0.023	0.022	0.021	0.02	0.021
308.15 K	0.025	0.024	0.023	0.022	0.021	0.022
313.15 K	0.026	0.025	0.024	0.023	0.022	0.024

CCCCCCCCCCCCOS(=O)(=O)[O-].[Na+] + CCO + O
298 K, 100 kPa, frequency 0.001 MHz
Conditions	electrical conductivity [S/m]
x2 = 0.02563, x3 = 0.9741	0.0809
x2 = 0.06861, x3 = 0.9309	0.103
x2 = 0.06862, x3 = 0.9311	0.0828

CC[NH3+].O=[N+]([O-])[O-] + C[N+](=O)[O-]
298.15 K, 101 kPa
Conditions	electrical conductivity [S/m]	viscosity [mPa·s]
x1 = 0.0084	0.0847	0.671
x2 = 0	2.27	37.5
x2 = 0.5996	2.42	5.95

CCCCCCCCCCCCCC[P+](CCCC)(CCCC)CCCC.CCCCCCCCCCCCc1ccccc1S(=O)(=O)[O-] + CCCCCCCCCCCC
101 kPa
Conditions	viscosity [mPa·s]
298.15 K, x1 = 0.4402	456
303.15 K, x1 = 0.4402	325
308.15 K, x1 = 0.4844	319
313.15 K, x1 = 0.354	127
313.15 K, x1 = 0.4402	180
313.15 K, x1 = 0.4844	236
318.15 K, x1 = 0.6789	596
328.15 K, x1 = 0.354	59.1
328.15 K, x1 = 0.6789	316
338.15 K, x1 = 0.354	39.1
338.15 K, x1 = 0.4844	65.1
343.15 K, x1 = 0.6789	133
353.15 K, x1 = 0.6789	86.1

CCCCCCCCCCCCCCCC[N+](C)(C)C.[Br-] + O + CO
electrical conductivity [S/m], 101 kPa
Conditions	293 K	298 K	303 K	308 K	313 K
x1 = 1.91e-06, x2 = 0.92	0.0025	0.0026	0.0022	0.0037	0.003
x1 = 5.74e-06, x2 = 0.92	0.0046	0.0047	0.0044	0.0063	0.0059
x1 = 9.57e-06, x2 = 0.92	0.0065	0.0067	0.0069	–	0.0088
x1 = 1.148e-05, x2 = 0.92	0.0077	0.0079	0.0083	0.0107	0.0106
x1 = 1.34e-05, x2 = 0.92	0.0087	0.009	0.0096	0.0122	0.0122
x1 = 1.531e-05, x2 = 0.92	0.0099	0.0102	0.0109	–	0.014
x1 = 1.723e-05, x2 = 0.92	0.0111	0.0114	0.0123	0.0157	0.016
x1 = 1.914e-05, x2 = 0.92	0.0121	0.0125	0.0138	0.0174	0.018
x1 = 2.871e-05, x2 = 0.92	0.0168	0.018	0.0199	0.0248	0.0261
x1 = 3.828e-05, x2 = 0.92	0.0215	0.0236	0.0263	0.0325	0.0352
x1 = 5.742e-05, x2 = 0.9199	0.0306	0.0338	0.0381	0.0467	0.0521
x1 = 7.656e-05, x2 = 0.9199	0.0391	0.0441	0.0502	0.0608	0.0687
x1 = 9.57e-05, x2 = 0.9199	0.0439	0.0508	0.0579	0.0702	–
x1 = 0.0001148, x2 = 0.9199	0.0472	0.0552	0.0632	0.0758	–
x1 = 0.000134, x2 = 0.9199	0.05	0.0585	0.0675	0.0806	–
x1 = 0.0001531, x2 = 0.9199	0.0527	0.0618	0.0719	0.0858	–
x1 = 0.0001722, x2 = 0.9198	0.0554	0.0652	0.0758	0.0904	–
x1 = 0.0001914, x2 = 0.9198	0.0582	0.0684	0.0801	0.0955	–
x1 = 0.0002105, x2 = 0.9198	0.0607	0.0715	0.0839	0.101	–
x1 = 0.0002296, x2 = 0.9198	0.0631	0.0747	0.0879	0.105	–
x1 = 0.0002488, x2 = 0.9198	0.0661	0.078	0.0917	0.11	–
x1 = 0.0002679, x2 = 0.9198	0.0688	0.0811	0.0958	0.115	–

Source: the CheMixHub ionic liquid set
